Test results as given in ChEMBL document CHEMBL3352657 (J Med Chem, 2014).
The source made the active and inactive calls. The rule behind the calls is not given here.

Tests used:
[1] = target: T1, Neurotensin receptor type 2 (Rattus norvegicus, UniProt Q63384); assay: Displacement of [125I]neurotensin from rat NTS2 receptor expressed in CHO-K1 cells by competitive binding assay; type: cell-based
T1 sequence (Q63384 whole entry): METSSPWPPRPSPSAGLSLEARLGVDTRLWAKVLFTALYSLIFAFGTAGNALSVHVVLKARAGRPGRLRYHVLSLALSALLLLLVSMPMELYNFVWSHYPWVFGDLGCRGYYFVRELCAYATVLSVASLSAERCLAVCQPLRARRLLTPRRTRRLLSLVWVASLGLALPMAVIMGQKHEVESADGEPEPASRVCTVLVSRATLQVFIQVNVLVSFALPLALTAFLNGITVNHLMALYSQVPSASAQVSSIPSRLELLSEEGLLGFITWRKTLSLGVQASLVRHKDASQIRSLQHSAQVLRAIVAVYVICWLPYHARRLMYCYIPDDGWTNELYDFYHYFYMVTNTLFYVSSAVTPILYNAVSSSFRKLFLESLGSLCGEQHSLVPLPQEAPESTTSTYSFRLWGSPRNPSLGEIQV

[2] = target: Neurotensin receptor type 1 (Rattus norvegicus, UniProt P20789); assay: Displacement of [125I]neurotensin from rat NTS1 receptor expressed in CHO-K1 cells by competitive binding assay; type: cell-based
Sequence of Neurotensin receptor type 1 (P20789 whole entry): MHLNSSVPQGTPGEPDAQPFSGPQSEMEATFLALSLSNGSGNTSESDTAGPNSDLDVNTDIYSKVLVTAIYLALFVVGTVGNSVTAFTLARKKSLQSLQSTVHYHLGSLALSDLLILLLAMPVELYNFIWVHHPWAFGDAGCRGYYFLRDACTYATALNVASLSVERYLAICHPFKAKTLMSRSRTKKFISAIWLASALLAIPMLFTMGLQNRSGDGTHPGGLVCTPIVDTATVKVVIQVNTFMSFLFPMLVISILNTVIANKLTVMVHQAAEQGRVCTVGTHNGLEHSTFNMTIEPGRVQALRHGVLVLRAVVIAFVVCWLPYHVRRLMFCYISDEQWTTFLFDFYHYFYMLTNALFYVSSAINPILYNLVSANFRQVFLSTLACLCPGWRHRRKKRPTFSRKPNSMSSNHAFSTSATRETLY

[3] = target: T1, Neurotensin receptor type 2; assay: Antagonist activity at rat NTS2 receptor expressed in CHO-K1 cells assessed as inhibition of SR142948a-induced calcium mobilization by FLIPR assay; type: functional, cell-based
[4] = target: Neurotensin receptor type 1 (Rattus norvegicus) (UniProt P20789); assay: Agonist activity at rat NTS1 receptor expressed in CHO-K1 cells assessed as calcium mobilization by FLIPR assay; type: functional, cell-based
Sequence of Neurotensin receptor type 1 (Rattus norvegicus) (P20789 whole entry): as above

[5] = target: Neurotensin receptor type 1 (Rattus norvegicus) (UniProt P20789); assay: Antagonist activity at rat NTS1 receptor expressed in CHO-K1 cells assessed as inhibition of […]-induced calcium mobilization by FLIPR assay; type: functional, cell-based
[6] = target: T1, Neurotensin receptor type 2; assay: Agonist activity at rat NTS2 receptor expressed in CHO-K1 cells assessed as calcium mobilization by FLIPR assay; type: functional, cell-based

Row | Ki [1] | Ki [2] | Activity [4] | inhibition [5] | EC50 ([6]; read-out: EC50) | SMILES | IC50 [3] | EC50 ([6]; cho-k1)
1 | 1500 nM | > 30000 nM | inactive | inactive | – | Cc1ccc(S(=O)(=O)Nc2ccc3c(ccn3CC(=O)N[C@@H](CC(C)C)C(=O)O)c2)cc1 | 3320 nM | Not Active
2 | 5.8 nM | 1.4 nM | – | – | 22 nM | COc1cccc(OC)c1-c1cc(C(=O)NC2(C(=O)O)C3CC4CC(C3)CC2C4)nn1-c1ccc(C(=O)N(C)CCCN(C)C)cc1C(C)C (stereo not drawn) | – | –

Row | SMILES | Ki [1] | Ki [2] | Activity [4] | inhibition [5] | EC50 ([6]; read-out: EC50) | IC50 [3] | EC50 ([6]; cho-k1)
3 | Cc1ccc(S(=O)(=O)Nc2ccc3c(c2)c(C(=O)C(F)(F)F)cn3CC(=O)N[C@@H](CC(C)C)C(=O)O)cc1 | 202 nM | > 30000 nM | – | – | – | 38 nM | Not Active
